Structures can show the parent of a compound that is named as a salt.
Columns and labels:
[1] = tested on: pseudotyped VSV G particles (VSVpp) in Huh7-high CD81 cells; experiment: microbe, parasite or virus in culture; assay type: cell-based, vesicular stomatitis virus; conditions: Vesicular stomatitis virus, 72 h, read-out: VSVpp (EC50, μM)
[2] = tested on: Pseudotyped HCV GT1b particles (HCVpp), entry into Huh7-high CD81 cells; experiment: microbe, parasite or virus in culture; assay type: cell-based, HCV GT1b Con1 strain; conditions: Hepatitis C virus, GT1B, 72 h, read-out: HCVpp GT-1b (EC50, μM)

Row | Compound | EC50 [1] [µM] | EC50 [2] [µM]
1 | Nc1nc(Nc2cc(Cl)c(-c3ccc(S(=O)(=O)C4CCCNC4)cc3)c(C(F)(F)F)c2)n[nH]1 (stereo not drawn) [Compound 29, N*3*-[2-Chloro-4′-(piperidine-3-sulfonyl)-6-trifluoromethyl-biphenyl-4-yl]-1H-[1,2,4]triazole-3,5-diamine; hydrochloride] | 3.53 | 0.09
2 | Nc1nc(Nc2cc(Cl)c(-c3ccc(S(=O)(=O)N4CCC(F)(F)CC4)cc3)c(C(F)(F)F)c2)n[nH]1 [Compound 183, N3-(2-chloro-4′-(4,4-difluoropiperidin-1-ylsulfonyl)-6-(trifluoromethyl)biphenyl-4-yl)-1H-1,2,4-triazole-3,5-diamine] | 8.19 | 0.048
3 | Nc1nc(Nc2cc(Cl)c(-c3ccc(S(=O)(=O)C4CCN(CCC(F)(F)F)CC4)cc3)c(C(F)(F)F)c2)n[nH]1 [Compound 4, N*3*-{2-Chloro-6-trifluoromethyl-4′-[1-(3,3,3-trifluoro-propyl)-piperidine-4-sulfonyl]-biphenyl-4-yl}-1H-[1,2,4]triazole-3,5-diamine; hydrochloride] | > 10 | 0.005
4 | Nc1nc(Nc2cc(Cl)c(-c3ccc(Cl)cc3Cl)c(Cl)c2)n[nH]1 [Compound 124, N-3-(2,6,2′,4′-Tetrachloro-biphenyl-4-yl)-1H-[1,2,4]triazole-3,5-diamine] | 4.49 | 1.01
5 | CS(=O)(=O)c1ccc(-c2c(Cl)cc(Nc3n[nH]c(N)n3)cc2Cl)cc1C(F)(F)F [Compound 14, N*3*-(2,6-Dichloro-4′-methanesulfonyl-3′-trifluoromethyl-biphenyl-4-yl)-1H-[1,2,4]triazole-3,5-diamine] | 0.12 | 0.052
6 | COCCN1CCC(Oc2ccc(-c3c(Cl)cc(Nc4n[nH]c(N)n4)cc3C(F)(F)F)cc2)CC1 [Compound 143, N*3*-{6-Chloro-4′-[1-(2-methoxy-ethyl)-piperidin-4-yloxy]-2-trifluoromethyl-biphenyl-4-yl}-1H-[1,2,4]triazole-3,5-diamine hydrochloride] | 8.98 | 0.231
7 | Nc1nc(Nc2cc(Cl)c(-c3ccc(S(=O)(=O)NC4COC4)cc3)c(C(F)(F)F)c2)n[nH]1 [Compound 295, 4′-(5-amino-1H-1,2,4-triazol-3-ylamino)-2′-chloro-N-(oxetan-3-yl)-6′-(trifluoromethyl)biphenyl-4-sulfonamide] | 10 | 0.022
8 | CN(C)S(=O)(=O)c1cccc(-c2c(Cl)cc(Nc3n[nH]c(N)n3)cc2C(F)(F)F)c1 [Compound 198, 4′-(5-amino-1H-1,2,4-triazol-3-ylamino)-2′-chloro-N,N-dimethyl-6′-(trifluoromethyl)biphenyl-3-sulfonamide] | 21.3 | 0.268
9 | Nc1nc(Nc2cc(Cl)c(-c3ccc(OC[C@H]4CCCN4)cc3)c(C(F)(F)F)c2)n[nH]1 (stereo in doubt) [Compound 279, N*3*-[6-Chloro-4′-(pyrrolidin-2-ylmethoxy)-2-trifluoromethyl-biphenyl-4-yl]-1H-[1,2,4]triazole-3,5-diamine] | 37 | 0.193
10 | Nc1nc(Nc2cc(Cl)c(-c3ccc(S(=O)(=O)N4CCS(=O)(=O)CC4)cc3)c(C(F)(F)F)c2)n[nH]1 [Compound 45, N*3*-[2-Chloro-4′-(1,1-dioxo-1lambda*6*-thiomorpholine-4-sulfonyl)-6-trifluoromethyl-biphenyl-4-yl]-1H-[1,2,4]triazole-3,5-diamine] | > 10 | 0.101
11 | COc1ccc(-c2c(Cl)cc(Nc3n[nH]c(N)n3)cc2C(F)(F)F)cc1S(=O)(=O)NC1(C)CN(C(=O)OC(C)(C)C)C1 [Compound 212, tert-butyl 3-(4′-(5-amino-1H-1,2,4-triazol-3-ylamino)-2′-chloro-4-methoxy-6′-(trifluoromethyl)biphenyl-3-ylsulfonamido)-3-methylazetidine-1-carboxylate] | 1.42 | 0.005
12 | Nc1nc(Nc2cc(Cl)c(-c3ccc(C(=O)O)cc3)c(C(F)(F)F)c2)n[nH]1 [Compound 202, 4′-(5-amino-1H-1,2,4-triazol-3-ylamino)-2′-chloro-6′-(trifluoromethyl)biphenyl-4-carboxylic acid 2,2,2-trifluoroacetate] | > 10 | 1.25
13 | Nc1n[nH]c(Nc2cc(F)c(-c3ccc(F)cc3)c(C(F)(F)F)c2)n1 [Compound 245, N^5-[6,4′-Difluoro-2-trifluoromethylbiphenyl-4-yl]-1H-[1,2,4]-triazole-3,5-diamine] | 17.1 | 1.47
14 | NCCCCOc1ccc(-c2c(Cl)cc(Nc3n[nH]c(N)n3)cc2Cl)cc1 [Compound 49, N*3*-[4′-(4-Amino-butoxy)-2,6-dichloro-biphenyl-4-yl]-1H-[1,2,4]triazole-3,5-diamine; trifluoro-acetate] | > 10 | 0.455
15 | CS(=O)(=O)CCCN1CCC(Oc2ccc(-c3c(Cl)cc(Nc4n[nH]c(N)n4)cc3C(F)(F)F)cc2)CC1 [Compound 142, N*3*-{6-Chloro-4′-[1-(3-methanesulfonyl-propyl)-piperidin-4-yloxy]-2-trifluoromethyl-biphenyl-4-yl}-1H-[1,2,4]triazole-3,5-diamine hydrochloride] | > 10 | 0.242
16 | CC1(NS(=O)(=O)c2ccc(-c3c(Cl)cc(Nc4n[nH]c(N)n4)cc3C(F)(F)F)cc2)CC1 [Compound 206, 4′-(5-amino-1H-1,2,4-triazol-3-ylamino)-2′-chloro-N-(1-methylcyclopropyl)-6′-(trifluoromethyl)biphenyl-4-sulfonamide] | 9.62 | 0.017
17 | CS(=O)(=O)c1ccc(-c2c(F)cc(Nc3nc(N)n[nH]3)cc2F)cc1 [Compound 76, N^5-(2,6-difluoro-4′-(methylsulfonyl)biphenyl-4-yl)-1H-[1,2,4]-triazole-3,5-diamine] | > 10 | 0.246
18 | Nc1nc(Nc2cc(Cl)c(-c3ccc(S(N)(=O)=O)cc3)c(Cl)c2)n[nH]1 [Compound 253] | 0.6 | 0.026
19 | COc1ccc(-c2c(Cl)cc(Nc3n[nH]c(N)n3)cc2C(F)(F)F)cc1S(=O)(=O)NC1CCN(C(C)=O)CC1 [Compound 227, 4′-(5-Amino-1H-[1,2,4]triazol-3-ylamino)-6′-chloro-4-methoxy-2′-trifluoromethyl-biphenyl-3-sulfonic acid (1-acetyl-piperidin-4-yl)-amide] | > 10 | 0.042
20 | Nc1nc(Nc2cc(Cl)c(-c3ccc4c(c3)NC(=O)C4)c(Cl)c2)n[nH]1 [Compound 256] | 8.69 | 0.594
21 | N#Cc1cccc(-c2c(F)cc(Nc3nc(N)n[nH]3)cc2C(F)(F)F)c1 [Compound 89, 4′-(5-Amino-2H-[1,2,4]-triazol-3-ylamino)-6′-fluoro-2′-trifluoromethyl-biphenyl-3-carbonitrile] | 33.3 | 25.1
22 | NCCOc1ccc(-c2c(Cl)cc(Nc3n[nH]c(N)n3)cc2C(F)(F)F)cc1 [Compound 135, N*3*-[4′-(2-Amino-ethoxy)-6-chloro-2-trifluoromethyl-biphenyl-4-yl]-1H-[1,2,4]-triazole-3,5-diamine hydrochloride] | > 10 | 0.077
23 | CN1CCN(S(=O)(=O)c2ccc(-c3c(Cl)cc(Nc4n[nH]c(N)n4)cc3C(F)(F)F)cc2)CC1 [Compound 22, N*3*-[2-Chloro-4′-(4-methyl-piperazine-1-sulfonyl)-6-trifluoromethyl-biphenyl-4-yl]-1H-[1,2,4]triazole-3,5-diamine] | 13.5 | 0.053
24 | CC(C)(C)NS(=O)(=O)c1cc(-c2c(Cl)cc(Nc3n[nH]c(N)n3)cc2C(F)(F)F)ccc1OC(F)(F)F [Compound 193, 4′-(5-amino-1H-1,2,4-triazol-3-ylamino)-N-tert-butyl-2′-chloro-4-(trifluoromethoxy)-6′-(trifluoromethyl)biphenyl-3-sulfonamide] | 4.97 | 0.075
25 | CC(C)(C)OC(=O)N1CCN(S(=O)(=O)c2ccc(-c3c(Cl)cc(Nc4n[nH]c(N)n4)cc3C(F)(F)F)cc2)CC1 [Compound 16, 4-[4′-(5-Amino-1H-[1,2,4]triazol-3-ylamino)-2′-chloro-6′-trifluoromethyl-biphenyl-4-sulfonyl]-piperazine-1-carboxylic acid tert-butyl ester] | > 10 | 0.03
26 | Nc1nc(Nc2ccc(-c3ccccc3Cl)c(C(F)(F)F)c2)n[nH]1 [Compound 153, N*3*-(2′-Chloro-2-trifluoromethyl-biphenyl-4-yl)-1H-[1,2,4]triazole-3,5-diamine] | 9.61 | 1.81
27 | CS(=O)(=O)NCCc1ccc(-c2c(Cl)cc(Nc3n[nH]c(N)n3)cc2C(F)(F)F)cc1 [Compound 38, N-{2-[4′-(5-Amino-1H-[1,2,4]triazol-3-ylamino)-2′-chloro-6′-trifluoromethyl-biphenyl-4-yl]-ethyl}-methanesulfonamide] | 7.01 | 0.087
28 | CS(=O)(=O)c1ccc(-c2c(F)cc(Nc3nc(N)n[nH]3)cc2C(F)(F)F)cc1 [Compound 70, N^5-(2-Fluoro-4′-(methylsulfonyl)-6-trifluoromethylbiphenyl-4-yl)-1H-[1,2,4]-triazole-3,5-diamine] | 5.15 | 0.064
29 | CS(=O)(=O)NCc1cccc(-c2c(Cl)cc(Nc3n[nH]c(N)n3)cc2C(F)(F)F)c1 [Compound 199, N-((4′-(5-amino-1H-1,2,4-triazol-3-ylamino)-2′-chloro-6′-(trifluoromethyl)biphenyl-3-yl)methyl)methanesulfonamide] | 31.8 | 0.196
30 | CC(C)(C)NC(=O)c1ccc(-c2c(Cl)cc(Nc3n[nH]c(N)n3)cc2Cl)cc1 [Compound 8, 4′-(5-Amino-1H-[1,2,4]triazol-3-ylamino)-2′,6′-dichloro-biphenyl-4-carboxylic acid tert-butylamide] | > 10 | 0.013

— patent US9693997B2, “Antiviral compounds” (priority 2013, dated 2017)
